Reference: patent US20220079912A1, “ANTICANCER FORMULATION” (University of Mississippi, priority 2018, published 2022)

Tests used:
[1] = tested on: T98G human glioblastoma cells; test: Lactic acid accumulation in cell culture medium; type: cell-based; details: three hour period; for inhibition of lactic acid production (accumulation): different concentrations, FIG. 6, FIG. 7
Excerpt: Acidification of the cell culture medium occurs because of the enhanced use of glycolysis by transformed cells (and resulting increase in lactic acid production). This led us to investigate whether GH reduced lactic acid levels in the cell culture medium.

T98G cells [2] = test: Combination cytotoxicity with mitochondrial complex I inhibitors (% cell survival)
Excerpt: Example 2: Gnetin H In Combination with Mitochondrial Complex I Inhibitors. […] The plus signs above the combination treatment bars indicates the value of % cell survival if the anti-proliferative effect was additive.
In FIGS. 9 A-B., the plus signs are placed above the combination treatment bars at the % cell survival value if the anti-proliferative effect was additive. […] Both T98G and MDA-MB-231 cells lack functional p53 but B16 are p53 wild type.
Example 4: Peony Seed extract. […] T98G cells were treated with different concentrations of purified GH (numbers indicate μM) or PSE (numbers indicate μg/ml) alone or in combination with a Paw Paw (PP) extract (2 μg/ml) for 48 hrs (FIG. 12 A). The plus signs are placed above the combination treatment bars at the % cell survival value if the anti-proliferative effect was additive. […] T98G cells were treated with different concentrations of purified GH or PSE in combination with a Paw Paw extract (2 μg/ml) for 48 hrs (FIG. 12 B).

ARRDC4 mRNA = test: Differential gene expression analysis (RNA-Seq) in T98G cells; type: cell-based, human; details: 2 hours, GH 8 μM, 2-DG 25 mM, Ph 100, minus = reduced, plus = increase, NC = no change
Excerpt: (§1) GH inhibits expression of TXNIP and ARRDC4 mRNAs. […] Since the transcription factors (MondoA/Mlx complex) regulating the expression of the TXNIP gene is thought to be controlled by intermediates in the upper portion of the glycolytic pathway (12), GH may be negatively impacting this portion of glycolysis. Reduction in the levels of these intermediates by GH would prevent activation of the MondoA/Mlx transcription complex and would result in suppression of TXNIP transcription and TXNIP mRNA levels. Both of these gene products (TXNIP and ARRDC4) are thought to suppress glucose transport by enhancing degradation of glucose transporters (12).

TXNIP protein levels [3] = test: Western blot of TXNIP protein, T98G cell line; type: cell-based, human; details: FIG. 15, FIG. 17; for TXNIP protein levels, agent alone: GH 8 μM 6 hrs or 3 hrs, 2-DG 25 mM, OXA 25 mM, BPX 25 μM, DCA 25 mM, 6 hr
Excerpt: (§2) AMPK activation has been previously shown to phosphorylate and cause the degradation of TXNIP during energy stress (13).

TXNIP protein levels [4] = test: Western blot of TXNIP protein, MDA-MB-231 cell line; type: cell-based, human; details: FIG. 16, FIG. 18; for TXNIP protein levels, agent alone: GH 8 μM 6 hrs or 3 hrs, 2-DG 25 mM, OXA 25 mM, BPX 25 μM, DCA 25 mM, 6 hr
Excerpt: as §2

B16 cells [5] = test: Lactic acid export (intracellular lactic acid levels); type: cell-based, mouse; details: 3 hours, FIG. 4
Method: To prevent the buildup of lactic acid within the cell a family of monocarboxylate transporters (MCT) functions to transport lactic acid out of the cell (10). To determine if GH inhibits lactic acid export from the cell, and in this manner inhibits the accumulation of lactic acid in the cell culture medium, intracellular lactic acid levels were measured. If GH inhibited lactic acid export, treatment of cells with GH would result in the increase in intracellular lactic acid levels. As a positive control the MCT1 inhibitor AZD3965 was used.

TXNIP mRNA = test: Differential gene expression analysis (RNA-Seq) in T98G cells; type: cell-based, human; details: 2 hours, GH 8 μM, 2-DG 25 mM, Ph 100, minus = reduced, plus = increase, NC = no change
Excerpt: as §1

T98G cells [6] = test: Glucose transport (2-NBDG accumulation); type: cell-based, human; details: treated for one hour followed by 2-NBDG for one hour
B16 cells [7] = test: Glucose transport (2-NBDG accumulation); type: cell-based, mouse; details: B16, treated for one hour followed by 2-NBDG for one hour
MDA-MB-231 cells = test: Glucose transport (2-NBDG accumulation); type: cell-based, human; details: MDA-MB-231, treated for one hour followed by 2-NBDG for one hour
Excerpt: Phloretin, a known glucose transport inhibitor, was used as a positive control. Accumulation of 2-NDGB was inhibited by phloretin by 54% in T98G cells, by 31% in B16 cells and by 74% in MDA-MB-231 cells. The first panel for each cell line represents unstained cells, the second stained with 2-NBDG for one hour, the third treated with GH for one hour followed by 2-NBDG for one hour and the fourth treated with phloretin for one hour followed by 2-NBDG for one hour.

SMILES: Oc1ccc(/C=C/c2cc(O)cc3c2[C@@H](c2cc(O)cc(O)c2)[C@H](c2ccc(O)cc2)O3)cc1 (relative stereo) [Vin, trans-ε viniferin, reference compound]
- inhibition of lactic acid production ([1]; 40 μM, FIG. 6): 40%
- synergistic cytotoxicity in combination with phenformin (Ph) at 100 μM (T98G cells [2]): did not mimic GH activity

SMILES: O=CC[C@@H](O)[C@H](O)[C@H](O)CO [2-DG, 2-deoxyglucose]
- synergistic cytotoxicity in combination with phenformin (Ph) at 100 μM (T98G cells [2]): not synergistically cytotoxic
- ARRDC4 mRNA fold change (ARRDC4 mRNA): +3 fold
- TXNIP protein levels, in combination with Ph (TXNIP protein levels [3]): reduction of TXNIP protein levels
- TXNIP protein levels, agent alone (TXNIP protein levels [3]): increased TXNIP protein levels
- TXNIP protein levels, in combination with Ph (TXNIP protein levels [4]): reduction of TXNIP protein levels
- TXNIP protein levels, agent alone (TXNIP protein levels [4]): increased TXNIP protein levels

SMILES: Cc1[nH]nc(C(F)(F)F)c1Cc1sc2c(c1C(=O)N1C[C@](C)(O)CO1)c(=O)n(C)c(=O)n2C(C)C [AZD3965, reference compound]
- accumulation of intracellular lactic acid above control values (B16 cells [5]): ~4 fold

SMILES: O=C(O)C(=O)CBr [BPX, 3-bromopyruvate]
- TXNIP protein levels, in combination with Ph (TXNIP protein levels [3]): reduced TXNIP protein levels
- TXNIP protein levels, agent alone (TXNIP protein levels [3]): do not substantially reduce TXNIP protein levels
- TXNIP protein levels, in combination with Ph (TXNIP protein levels [4]): reduced TXNIP protein levels
- TXNIP protein levels, agent alone (TXNIP protein levels [4]): do not substantially reduce TXNIP protein levels

SMILES: CC(=O)N[C@@H](CS)C(=O)O [NAC, n-acetylcysteine]
- inhibition of lactic acid production (accumulation) [1]: did not inhibit lactic acid production

SMILES: [H]/N=C(/N)N/C(=N/[H])NCCc1ccccc1 [Ph, phenformin, reference compound]
- TXNIP mRNA fold change (TXNIP mRNA): −2.5 fold

SMILES: Oc1ccc(C=Cc2cc(O)cc(O)c2)cc1 [Res, Resveratrol]
- inhibition of lactic acid production (accumulation) [1]: did not inhibit lactic acid production

SMILES: O=C(CCc1ccc(O)cc1)c1c(O)cc(O)cc1O [phloretin, Phloretin, reference compound]
- inhibition of accumulation of 2-NBDG (T98G cells [6]): 54%
- inhibition of accumulation of 2-NBDG (B16 cells [7]): 31%
- inhibition of accumulation of 2-NBDG (MDA-MB-231 cells): 74%
